Measured values: article PMC12291913 (Antibiotics, 2025)
In brackets after ≈: the same amount, converted by molar mass. Several values for one entry are separate records, joined by “and”; a condition that tells them apart may be missing. Equal entries are not always repeated. Where two headings read alike, the source gives them in different places.

Legend:
[1] = tested on: M. avium clinical isolate Koav 3 (GyrA Asp95Gly); format: cell-based, M. avium subsp. hominissuis
[2] = tested on: M. avium clinical isolate Koav 11 (GyrA Asp95Tyr); format: cell-based, M. avium subsp. hominissuis
[3] = tested on: M. avium clinical isolate Koav 13 (GyrA Asp95Gly); format: cell-based, M. avium subsp. hominissuis
[4] = tested on: M. avium clinical isolate Cl-A-2 (GyrA Asp95Tyr); format: cell-based, M. avium subsp. hominissuis
[5] = tested on: M. avium clinical isolate Koav 1 (WT); assay: microbe, parasite or virus in culture; format: cell-based; details: Mycobacterium avium, drug alone, day 14, read-out: MIC
[6] = tested on: M. avium clinical isolate Koav 2 (WT); assay: microbe, parasite or virus in culture; format: cell-based; details: Mycobacterium avium, drug alone, day 14
[7] = tested on: M. avium clinical isolate Koav 15 (WT); assay: microbe, parasite or virus in culture; format: cell-based; details: Mycobacterium avium, drug alone, day 14, read-out: MIC
[8] = tested on: M. avium clinical isolate Koav 19 (WT); assay: microbe, parasite or virus in culture; format: cell-based; details: Mycobacterium avium, drug alone, day 14, read-out: MIC
[9] = tested on: M. avium clinical isolate Koav 20 (WT); assay: microbe, parasite or virus in culture; format: cell-based; details: Mycobacterium avium, drug alone, day 14, read-out: MIC
[10] = tested on: M. avium clinical isolate Koav 21 (WT); assay: microbe, parasite or virus in culture; format: cell-based; details: Mycobacterium avium, drug alone, day 14, read-out: MIC
[11] = tested on: M. avium clinical isolate Koav 25 (WT); assay: microbe, parasite or virus in culture; format: cell-based; details: Mycobacterium avium, drug alone, day 14, read-out: MIC
[12] = tested on: M. avium clinical isolate Koav 3 (GyrA Asp95Gly); format: cell-based, M. avium subsp. hominissuis; remark: listed apart in the source
[13] = tested on: M. avium clinical isolate Koav 11 (GyrA Asp95Tyr); format: cell-based, M. avium subsp. hominissuis; remark: listed apart in the source
[14] = tested on: M. avium clinical isolate Koav 13 (GyrA Asp95Gly); format: cell-based, M. avium subsp. hominissuis; remark: listed apart in the source
[15] = tested on: M. avium clinical isolate Cl-A-2 (GyrA Asp95Tyr); format: cell-based, M. avium subsp. hominissuis; remark: listed apart in the source
[16] = tested on: M. avium clinical isolate Koav 1 (WT); assay: microbe, parasite or virus in culture; format: cell-based; details: checkerboard; for MIC: Mycobacterium avium
[17] = tested on: M. avium clinical isolate Koav 2 (WT); assay: microbe, parasite or virus in culture; format: cell-based; details: Mycobacterium avium, checkerboard
[18] = tested on: M. avium clinical isolate Koav 15 (WT); assay: microbe, parasite or virus in culture; format: cell-based; details: checkerboard; for MIC: Mycobacterium avium
[19] = tested on: M. avium clinical isolate Koav 19 (WT); assay: microbe, parasite or virus in culture; format: cell-based; details: for MIC: Mycobacterium avium
[20] = tested on: M. avium clinical isolate Koav 20 (WT); assay: microbe, parasite or virus in culture; format: cell-based; details: checkerboard
[21] = tested on: M. avium clinical isolate Koav 21 (WT); assay: microbe, parasite or virus in culture; format: cell-based; details: Mycobacterium avium, checkerboard
[22] = tested on: M. avium clinical isolate Koav 25 (WT); assay: microbe, parasite or virus in culture; format: cell-based; details: for MIC: Mycobacterium avium
[23] = tested on: M. avium clinical isolate Koav 3 (GyrA Asp95Gly); details: drug alone, previous study ref 17; cited from earlier work
[24] = tested on: M. avium clinical isolate Koav 11 (GyrA Asp95Tyr); details: drug alone, previous study ref 17; cited from earlier work
[25] = tested on: M. avium clinical isolate Koav 13 (GyrA Asp95Gly); details: drug alone, previous study ref 17; cited from earlier work
[26] = tested on: M. avium clinical isolate Cl-A-2 (GyrA Asp95Tyr); details: drug alone, previous study ref 17; cited from earlier work
[27] = tested on: M. avium clinical isolate Koav 1 (WT); details: drug alone, previous study ref 17; cited from earlier work
[28] = tested on: M. avium clinical isolate Koav 2 (WT); details: drug alone, previous study ref 17; cited from earlier work
[29] = tested on: M. avium clinical isolate Koav 15 (WT); details: drug alone, previous study ref 17; cited from earlier work
[30] = tested on: M. avium clinical isolate Koav 19 (WT); details: drug alone, previous study ref 17; cited from earlier work
[31] = tested on: M. avium clinical isolate Koav 20 (WT); details: drug alone, previous study ref 17; cited from earlier work
[32] = tested on: M. avium clinical isolate Koav 21 (WT); details: drug alone, previous study ref 17; cited from earlier work
[33] = tested on: M. avium clinical isolate Koav 25 (WT); details: drug alone, previous study ref 17; cited from earlier work
[34] = Koav 25 (K 25), WT, checkerboard

Molecule `NNC(=O)c1ccncc1` [INH, isoniazid] has an MIC [1] of 4 µg/mL (≈ 29.2 µM), an MIC [2] of 8 µg/mL (≈ 58.3 µM) and an MIC [3] of 32 µg/mL (≈ 233 µM). For the same molecule, the MIC [4] was 4 to 8 µg/mL, the MIC [5] was 8 µg/mL (≈ 58.3 µM) and the MIC [6] was 128 µg/mL (≈ 933 µM). For the same molecule, the MIC [7] was 32 µg/mL (≈ 233 µM), the MIC [8] was 8 to 16 µg/mL (≈ 58.3 to 117 µM) and the MIC [9] was 16 µg/mL (≈ 117 µM). For the same molecule, the MIC [10] was 16 µg/mL (≈ 117 µM), the MIC [11] was 8 µg/mL (≈ 58.3 µM) and the “MIC of INH or EMB with 1 µg/ml MXF” value [12] was 2 µg/mL and 1 µg/mL. For the same molecule, the “MIC of INH or EMB with WQ-3810” value [12] was 2 µg/mL and 1 µg/mL, the “MIC of drug alone” value [12] was 4 µg/mL and 8 µg/mL and the “MIC of INH or EMB with 1 µg/ml MXF” value [13] was 2 µg/mL. The “MIC of INH or EMB with WQ-3810” value [13] was 2 µg/mL, the “MIC of drug alone” value [13] was 8 µg/mL and 16 µg/mL and the “MIC of INH or EMB with 1 µg/ml MXF” value [14] was 8 µg/mL and 4 µg/mL. The “MIC of INH or EMB with WQ-3810” value [14] was 8 µg/mL and 4 µg/mL, the “MIC of drug alone” value [14] was 32 µg/mL and the “FIC of INH or EMB” value [15] was 0.5 µg/mL and 0.25 µg/mL. For the same molecule, the “MIC of INH or EMB with 1 µg/ml MXF” value [15] was 2 µg/mL, the “MIC of INH or EMB with WQ-3810” value [15] was 2 µg/mL and the “MIC of drug alone” value [15] was 4 µg/mL and 8 µg/mL. The “MIC of INH or EMB with 1 µg/ml MXF” value ([16]; Koav 1 (K 1), WT) was 2 µg/mL, the “MIC of INH or EMB with WQ-3810” value ([16]; Koav 1 (K 1), WT) was 8 µg/mL and the “MIC of drug alone” value ([16]; Koav 1 (K 1), WT, single replicates) was 16 µg/mL and 32 µg/mL and 8 µg/mL. It also gave an MIC ([16]; read-out: MIC of INH or EMB with 1 µg/ml MXF, Koav 1 (K 1), WT) of 1 µg/mL, an MIC ([16]; read-out: MIC of INH or EMB with WQ-3810, Koav 1 (K 1), WT) of 4 µg/mL and an MIC ([17]; Koav 2 (K 2), WT, single replicates, read-out: MIC of drug alone) of 128 µg/mL. The MIC ([17]; read-out: MIC of INH or EMB with 1 µg/ml MXF, Koav 2 (K 2), WT) was 8 µg/mL, the MIC ([17]; read-out: MIC of INH or EMB with WQ-3810, Koav 2 (K 2), WT) was 16 µg/mL and the “MIC of INH or EMB with 1 µg/ml MXF” value ([18]; Koav 15 (K 15), WT) was 4 µg/mL. The “MIC of INH or EMB with WQ-3810” value ([18]; Koav 15 (K 15), WT) was 8 µg/mL, the “MIC of drug alone” value ([18]; Koav 15 (K 15), WT, single replicates) was 16 µg/mL and the MIC ([18]; Koav 15 (K 15), WT, single replicates, read-out: MIC of drug alone) was 32 µg/mL. The MIC ([18]; read-out: MIC of INH or EMB with 1 µg/ml MXF, Koav 15 (K 15), WT) was 8 µg/mL, the MIC ([18]; read-out: MIC of INH or EMB with WQ-3810, Koav 15 (K 15), WT) was 4 µg/mL and the “MIC of drug alone” value ([19]; Koav 19 (K 19), WT, checkerboard, single replicates) was 16 µg/mL. For the same molecule, the “FIC of INH or EMB” value ([19]; Koav 19 (K 19), WT, pair with MXF) was 0.0625 µg/mL, the MIC ([19]; Koav 19 (K 19), WT, checkerboard, single replicates, read-out: MIC of drug alone) was 8 µg/mL and the MIC ([19]; read-out: MIC of INH or EMB with 1 µg/ml MXF, Koav 19 (K 19), WT, checkerboard) was 1 µg/mL. The “MIC of INH or EMB with 1 µg/ml MXF” value ([20]; Koav 20 (K 20), WT) was 4 µg/mL, the “MIC of drug alone” value ([20]; Koav 20 (K 20), WT, single replicates) was 32 µg/mL and 16 µg/mL and 64 µg/mL and the MIC ([20]; Mycobacterium avium, read-out: MIC of INH or EMB with 1 µg/ml MXF, Koav 20 (K 20), WT) was 2 µg/mL. The MIC ([21]; Koav 21 (K 21), WT, single replicates, read-out: MIC of drug alone) was 16 µg/mL, the MIC ([21]; read-out: MIC of INH or EMB with 1 µg/ml MXF, Koav 21 (K 21), WT) was 1 µg/mL and the “MIC of INH or EMB with 1 µg/ml MXF” value [22, 34] was 1 µg/mL. For the same molecule, the “MIC of INH or EMB with WQ-3810” value [22, 34] was 4 µg/mL, the “MIC of drug alone” value ([22]; Koav 25 (K 25), WT, checkerboard, single replicates) was 16 µg/mL and the “FIC of INH or EMB” value ([22]; Koav 25 (K 25), WT, pair with WQ-3810) was 0.25 µg/mL. The MIC ([22]; Koav 25 (K 25), WT, checkerboard, single replicates, read-out: MIC of drug alone) was 8 µg/mL, the MIC ([22]; read-out: MIC of INH or EMB with 1 µg/ml MXF, Koav 25 (K 25), WT, checkerboard) was 2 µg/mL and the MIC ([22]; read-out: MIC of INH or EMB with WQ-3810, Koav 25 (K 25), WT, checkerboard) was 2 µg/mL.
For `C[C@H]1COc2c(N3CCN(C)CC3)c(F)cc3c(=O)c(C(=O)O)cn1c23` [LVX, levofloxacin], the MIC [23] is listed as 64 µg/mL (≈ 177 µM), the MIC [24] is listed as 8 µg/mL (≈ 22.1 µM) and the MIC [25] is listed as 128 µg/mL (≈ 354 µM). For the same molecule, the MIC [26] was 64 µg/mL (≈ 177 µM), the MIC [27] was less than 0.5 µg/mL and the MIC [28] was 2 µg/mL (≈ 5.53 µM). The MIC [29] was 4 µg/mL (≈ 11.1 µM), the MIC [30] was 2 µg/mL (≈ 5.53 µM) and the MIC [31] was less than 0.5 µg/mL. The MIC [32] was 4 µg/mL (≈ 11.1 µM) and the MIC [33] was 4 µg/mL (≈ 11.1 µM).
